Consider 31 molecules from the supplement of paper PMC11616607.

The structures appear in SMILES notation.

One assay has as its system OVCAR8. As to the kind of experiment: drug sensitivity score (DSS) from 5-point dose-response viability curve (DSS (area-under-curve based score)); higher = more sensitive (stronger growth inhibition or killing); extreme values may be limits of the assay. Particulars: exposure time: 72 h; concentration range: 5 concentrations over 10,000-fold range. Summed up:
(§1)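 Ovarian cancer and normal ovarian cell lines were tested in 384-well plates, with drugs dispensed acoustically (Echo 550) in DMSO or water at five concentrations covering a 10,000-fold range. After 1,500 cells per well were added, plates were incubated for 3 days at 37°C and 5% CO2, and viability was read by CellTiter-Glo luminescence on a PHERAstar FS. Breeze software gave a drug sensitivity score for each cell line and drug, where a higher score means greater sensitivity. A value of zero means no response.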
For `CCc1cnn2c(NCc3ccc[n+]([O-])c3)cc(N3CCCC[C@H]3CCO)nc12` [Dinaciclib], the drug sensitivity score stood at 20.7.

For `O=C(O)c1ccc(CN2CCC(CN[C@@H]3C[C@H]3c3ccccc3)CC2)cc1`, the drug sensitivity score is 0. As to `CN1CCN(c2ccc(C(=O)Nc3n[nH]c4ccc(Cc5cc(F)cc(F)c5)cc34)c(NC3CCOCC3)c2)CC1` [Entrectinib], the drug sensitivity score is 0. Still for that read-out and setting: for `O=c1[nH]c(=O)n([C@H]2C[C@H](O)[C@@H](CO)O2)cc1C(F)(F)F` [Trifluridine] the value was 2.7; for `CCOC(=O)C1=CCCC[C@H]1S(=O)(=O)Nc1ccc(F)cc1Cl` [Resatorvid], 0. On the same count and under the same terms, in the case of `CN(Cc1cnc2nc(N)nc(N)c2n1)c1ccc(C(=O)N[C@@H](CCC(=O)O)C(=O)O)cc1` [Methotrexate] it was 12.3; in that of `CN1CCN(C2CCC(n3cc(-c4ccc(Oc5ccccc5)cc4)c4c(N)ncnc43)CC2)CC1` (configuration not stated), 9.4. In turn, `COc1cc2nccc(Oc3ccc(NC(=O)Nc4cc(C)on4)c(Cl)c3)c2cc1OC` [Tivozanib] registered a drug sensitivity score of 2.6. Molecule `C[C@H]1C[C@@H](n2c(Nc3ccc(OC(F)(F)F)cc3)nc3cc(CCC(=O)O)ccc32)CC(C)(C)C1` came in with a drug sensitivity score of 0.1. Regarding `CN1CCN(C2CCN(C(=O)Nc3cc(Oc4ccc(NC(=O)C5(C(=O)Nc6ccc(F)cc6)CC5)c(F)c4)ccn3)CC2)CC1` [Golvatinib], the drug sensitivity score worked out at 0. Molecule `Cc1cc([C@@H](C)Nc2ccccc2C(=O)O)c2nc(N3CCOCC3)cc(=O)n2c1` [AZD-6482] had a drug sensitivity score of 0.7. Same read-out and setting: in the case of `CC1=C(/C=C/C(C)=C/C=C/C(C)=C/C(=O)O)C(C)(C)CCC1` [Tretinoin] it was 0; in that of `CC[C@H](Nc1ncnc2[nH]cnc12)c1nc2cccc(F)c2c(=O)n1-c1ccccc1` [Idelalisib], 0.2. Same read-out and setting: for `O=c1[nH]cc(F)c(=O)[nH]1` [Fluorouracil] the value was 2.3; for `O=C(NOCCO)c1ccc2cncn2c1Nc1ccc(I)cc1F` [GDC-0623], 0.4. On the same count and under the same terms, for `CC(C)[C@H](C(=O)Nc1ccc(C(=O)NO)cc1)c1ccccc1` [AR-42] the value was 16.8.

The next assay relates to Ovsaho. The description is as above. Particulars: exposure time: 72 h; concentration range: 5 concentrations over 10,000-fold range. In a few lines: as §1
Turning to `COc1c(C)cnc(Cn2cnc3c(Cl)nc(N)nc32)c1C` [BIIB021], the drug sensitivity score was determined as 3.3.

Take `CO[C@@H]1[C@H](N(C)C(=O)c2ccccc2)C[C@H]2O[C@]1(C)n1c3ccccc3c3c4c(c5c6ccccc6n2c5c31)C(=O)NC4` [Midostaurin]: the drug sensitivity score worked out at 14.1. On to `COc1ccc(S(=O)(=O)Nc2cccnc2Nc2ccc(O)cc2)cc1` [ABT-751], for which the drug sensitivity score came to 7. The molecule `COc1cc2ncnc(Nc3cccc(Cl)c3F)c2cc1OC(=O)N1CCN(C)C[C@H]1C` [AZD3759] displayed a drug sensitivity score of 0. Consider `C[C@H]1CN(C2COC2)CCN1c1ccc(Nc2cc(-c3ccnc(N4CCn5c(cc6c5CC(C)(C)C6)C4=O)c3CO)cn(C)c2=O)nc1` [GDC-0853], for which the drug sensitivity score is 0.

Turning to `CCCOc1ccn2c(C(C)=O)cc(-c3ccccc3S(C)(=O)=O)c2c1` [GSK2801], the drug sensitivity score was found to be 0. Consider `CC(C)N(CCCNC(=O)Nc1ccc(C(C)(C)C)cc1)C[C@H]1O[C@@H](n2cc(Br)c3c(N)ncnc32)[C@H](O)[C@@H]1O` [SGC0946], for which the drug sensitivity score worked out at 0.1.

The molecule `Cc1ccc(-n2nc(C(C)(C)C)cc2NC(=O)Nc2ccc(OCCN3CCOCC3)c3ccccc23)cc1` [Doramapimod] had a drug sensitivity score of 2.9. On the same count and under the same terms, for `CO[C@@H](C)Cn1c(=O)n(C)c2cnc3ccc(-c4cncc(C(C)(C)O)c4)cc3c21` the value was 10.9; for `C[C@@H]1C[C@H]2[C@@H]3CCC4=CC(=O)C=C[C@]4(C)[C@@]3(F)[C@@H](O)C[C@]2(C)[C@@]1(O)C(=O)CO` [Dexamethasone], 0; for `CN1CCN(c2nc(C3=C(c4c[nH]c5ccccc45)C(=O)NC3=O)c3ccccc3n2)CC1` [Sotrastaurin], 0. In turn, `Cc1cc(F)c(C(=O)Nc2cccc(-c3nncn3C(C)C)n2)cc1-n1cnc(C2CC2)c1` [Selonsertib] showed a drug sensitivity score of 0. On the same count and under the same terms, in the case of `O=C(/C=C\n1cnc(-c2cc(C(F)(F)F)cc(C(F)(F)F)c2)n1)NNc1ccccn1` [Verdinexor] it was 7.6; in that of `Cn1nnc2c(C(N)=O)ncn2c1=O` [Temozolomide], 0. The molecule `NC(=O)N1CCC(CC(=O)N2CCC([C@H]3c4ncc(Br)cc4CCc4cc(Cl)cc(Br)c43)CC2)CC1` [Lonafarnib] gave a drug sensitivity score of 9.8. Regarding `CCc1cnn2c(NCc3ccc[n+]([O-])c3)cc(N3CCCC[C@H]3CCO)nc12` [Dinaciclib], the drug sensitivity score is 17.9. Molecule `O=C(O)c1ccc(CN2CCC(CN[C@@H]3C[C@H]3c3ccccc3)CC2)cc1` gave a drug sensitivity score of 0.

`CN1CCN(c2ccc(C(=O)Nc3n[nH]c4ccc(Cc5cc(F)cc(F)c5)cc34)c(NC3CCOCC3)c2)CC1` [Entrectinib] gave a drug sensitivity score of 1.5. Still for that read-out and setting: for `O=c1[nH]c(=O)n([C@H]2C[C@H](O)[C@@H](CO)O2)cc1C(F)(F)F` [Trifluridine] the value was 2; for `CCOC(=O)C1=CCCC[C@H]1S(=O)(=O)Nc1ccc(F)cc1Cl` [Resatorvid], 0. For `CN(Cc1cnc2nc(N)nc(N)c2n1)c1ccc(C(=O)N[C@@H](CCC(=O)O)C(=O)O)cc1` [Methotrexate], the drug sensitivity score turned out to be 2.9.

Turning to `CN1CCN(C2CCC(n3cc(-c4ccc(Oc5ccccc5)cc4)c4c(N)ncnc43)CC2)CC1` (configuration not stated), the drug sensitivity score worked out at 15.6. Take `COc1cc2nccc(Oc3ccc(NC(=O)Nc4cc(C)on4)c(Cl)c3)c2cc1OC` [Tivozanib]: the drug sensitivity score worked out at 0.1. In turn, `C[C@H]1C[C@@H](n2c(Nc3ccc(OC(F)(F)F)cc3)nc3cc(CCC(=O)O)ccc32)CC(C)(C)C1` gave a drug sensitivity score of 0. For the molecule `CN1CCN(C2CCN(C(=O)Nc3cc(Oc4ccc(NC(=O)C5(C(=O)Nc6ccc(F)cc6)CC5)c(F)c4)ccn3)CC2)CC1` [Golvatinib], the drug sensitivity score amounted to 0. Regarding `Cc1cc([C@@H](C)Nc2ccccc2C(=O)O)c2nc(N3CCOCC3)cc(=O)n2c1` [AZD-6482], the drug sensitivity score was 7.6. On the same count and under the same terms, for `CC1=C(/C=C/C(C)=C/C=C/C(C)=C/C(=O)O)C(C)(C)CCC1` [Tretinoin] the value was 0; for `CC[C@H](Nc1ncnc2[nH]cnc12)c1nc2cccc(F)c2c(=O)n1-c1ccccc1` [Idelalisib], 5.7.

With `O=c1[nH]cc(F)c(=O)[nH]1` [Fluorouracil], the drug sensitivity score turned out to be 2.6. Same read-out and setting: in the case of `O=C(NOCCO)c1ccc2cncn2c1Nc1ccc(I)cc1F` [GDC-0623] it was 0.8. Still for that read-out and setting: in the case of `CC(C)[C@H](C(=O)Nc1ccc(C(=O)NO)cc1)c1ccccc1` [AR-42] it was 9.
